Drawing on ChEMBL document CHEMBL1909046, “DrugMatrix in vitro pharmacology data”, this text covers IC50 and Ki for 17 molecules.

The target of one data set is Cytochrome P450 2C19 (Homo sapiens, UniProt P33261). Particulars: bti-tn-5b1-4. Note: in other assays of this panel Not Active means under 50% inhibition at 10 µM.
The target of data set [1] is T1, Neuropeptide Y receptor type 2 (Homo sapiens, UniProt P49146). Note: in other assays of this panel Not Active means under 50% inhibition at 10 µM.
T1 sequence (P49146 whole entry): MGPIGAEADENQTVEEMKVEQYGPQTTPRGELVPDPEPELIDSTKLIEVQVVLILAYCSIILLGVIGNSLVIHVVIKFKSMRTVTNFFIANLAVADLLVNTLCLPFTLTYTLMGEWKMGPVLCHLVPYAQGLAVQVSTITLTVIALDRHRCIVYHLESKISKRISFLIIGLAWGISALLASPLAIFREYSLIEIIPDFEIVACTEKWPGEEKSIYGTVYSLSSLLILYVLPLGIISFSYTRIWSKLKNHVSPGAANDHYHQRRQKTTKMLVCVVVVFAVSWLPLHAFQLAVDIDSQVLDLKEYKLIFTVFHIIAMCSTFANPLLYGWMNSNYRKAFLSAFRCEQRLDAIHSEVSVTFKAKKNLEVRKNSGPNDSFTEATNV
The class given is cell membranes, Membrane. Particulars: kan-ts.

The target in data set [2] is Matrix metalloproteinase-9 (Homo sapiens, UniProt P14780). Type of data set: cell-based.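 Note: inhibition of isolated MMP-9 enzyme activity toward a synthetic peptide substrate, from the DrugMatrix protease screening panel; in other assays of this panel Not Active means under 50% inhibition at 10 µM.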
Matrix metalloproteinase-9, sequence (P14780 whole entry): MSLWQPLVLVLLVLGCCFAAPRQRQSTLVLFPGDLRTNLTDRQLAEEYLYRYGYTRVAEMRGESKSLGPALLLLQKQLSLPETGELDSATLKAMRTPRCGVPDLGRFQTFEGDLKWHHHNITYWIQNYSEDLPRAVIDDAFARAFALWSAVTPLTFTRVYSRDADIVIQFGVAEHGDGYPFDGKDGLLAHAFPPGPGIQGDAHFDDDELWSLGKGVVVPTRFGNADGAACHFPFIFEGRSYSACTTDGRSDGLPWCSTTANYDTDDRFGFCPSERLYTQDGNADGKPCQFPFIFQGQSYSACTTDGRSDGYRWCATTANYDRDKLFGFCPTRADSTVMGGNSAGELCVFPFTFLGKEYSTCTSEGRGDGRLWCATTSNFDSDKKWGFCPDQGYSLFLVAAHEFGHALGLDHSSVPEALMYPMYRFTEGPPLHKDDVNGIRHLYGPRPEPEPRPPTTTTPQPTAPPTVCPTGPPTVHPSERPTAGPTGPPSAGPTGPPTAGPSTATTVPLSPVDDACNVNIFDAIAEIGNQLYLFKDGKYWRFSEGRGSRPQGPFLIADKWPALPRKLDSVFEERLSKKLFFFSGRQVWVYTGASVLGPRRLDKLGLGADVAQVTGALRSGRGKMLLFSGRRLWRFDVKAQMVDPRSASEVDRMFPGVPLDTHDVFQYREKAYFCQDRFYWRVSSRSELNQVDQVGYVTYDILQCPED
In a further data set the target is Adenosine receptor A2a (Homo sapiens, UniProt P29274). As to the kind of experiment: DRUGMATRIX: Adenosine A2A radioligand binding (ligand: […]). The class given is cell membranes, HEK293, Membrane. Particulars: hek293; Not Active = under 50% inhibition at 10 µM.
Adenosine receptor A2a, sequence (P29274 whole entry): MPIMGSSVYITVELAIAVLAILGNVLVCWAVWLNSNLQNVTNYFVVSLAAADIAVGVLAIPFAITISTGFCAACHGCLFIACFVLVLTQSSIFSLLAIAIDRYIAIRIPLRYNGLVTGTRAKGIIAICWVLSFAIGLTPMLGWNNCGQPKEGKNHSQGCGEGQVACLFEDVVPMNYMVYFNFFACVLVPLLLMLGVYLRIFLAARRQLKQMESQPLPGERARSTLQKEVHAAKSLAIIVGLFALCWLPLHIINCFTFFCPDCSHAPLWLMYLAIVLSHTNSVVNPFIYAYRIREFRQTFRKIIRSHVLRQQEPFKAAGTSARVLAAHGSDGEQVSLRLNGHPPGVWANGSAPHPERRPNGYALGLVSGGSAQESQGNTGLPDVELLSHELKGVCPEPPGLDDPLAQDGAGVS
The nature of data set [3]: DRUGMATRIX: GABAA, Muscimol, Central radioligand binding (ligand: [3H] Muscimol). The class given is cell membranes, Rattus norvegicus, Wistar, Brain, Membrane. Particulars: Not Active = under 50% inhibition at 10 µM.
Data set [4] addresses T2, Alpha-1B adrenergic receptor (Rattus norvegicus, UniProt P15823).
T2 sequence (P15823 whole entry): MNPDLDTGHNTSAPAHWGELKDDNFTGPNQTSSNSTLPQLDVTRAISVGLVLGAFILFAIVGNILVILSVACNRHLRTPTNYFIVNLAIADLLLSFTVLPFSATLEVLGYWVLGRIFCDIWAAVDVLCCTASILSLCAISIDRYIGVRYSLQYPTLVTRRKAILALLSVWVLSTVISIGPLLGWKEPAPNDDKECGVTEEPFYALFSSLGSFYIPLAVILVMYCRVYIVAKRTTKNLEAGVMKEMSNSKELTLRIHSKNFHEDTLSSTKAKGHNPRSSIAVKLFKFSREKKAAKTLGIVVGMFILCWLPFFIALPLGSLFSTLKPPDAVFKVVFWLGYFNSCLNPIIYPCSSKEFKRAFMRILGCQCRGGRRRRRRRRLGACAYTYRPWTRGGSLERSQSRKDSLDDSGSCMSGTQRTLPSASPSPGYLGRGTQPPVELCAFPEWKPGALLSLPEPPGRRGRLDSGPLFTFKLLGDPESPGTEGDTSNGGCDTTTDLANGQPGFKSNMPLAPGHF
The data set can be described thus: DRUGMATRIX: Alpha-1B adrenergic receptor radioligand binding (ligand: prazosin). Type of data set: cell membranes, Wistar, Liver, Membrane. Particulars: Not Active = under 50% inhibition at 10 µM; for Ki: read-out: Ki.

The target of data set [5] is T3, C-C chemokine receptor type 4 (Homo sapiens, UniProt P51679). Note: in other assays of this panel Not Active means under 50% inhibition at 10 µM.
T3 sequence (P51679 whole entry): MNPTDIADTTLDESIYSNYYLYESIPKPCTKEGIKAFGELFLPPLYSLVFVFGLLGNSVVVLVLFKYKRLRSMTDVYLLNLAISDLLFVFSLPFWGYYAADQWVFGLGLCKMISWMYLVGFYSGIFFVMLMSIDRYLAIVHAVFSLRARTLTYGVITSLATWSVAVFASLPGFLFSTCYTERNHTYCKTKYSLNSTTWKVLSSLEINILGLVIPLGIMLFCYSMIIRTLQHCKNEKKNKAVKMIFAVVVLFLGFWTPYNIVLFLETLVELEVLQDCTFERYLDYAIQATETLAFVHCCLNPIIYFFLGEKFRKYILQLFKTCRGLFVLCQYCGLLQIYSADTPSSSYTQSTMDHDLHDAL
The class given is cell membranes, Membrane. Particulars: chem-1.

For orientation: IC50 means the point on the concentration scale where inhibition reaches its midpoint. Usually Ki stands for the dissociation constant of the complex between target and ligand, obtained from inhibition or displacement.

Structures are written as SMILES.

Cytochrome P450 2C19, sequence (P33261 whole entry): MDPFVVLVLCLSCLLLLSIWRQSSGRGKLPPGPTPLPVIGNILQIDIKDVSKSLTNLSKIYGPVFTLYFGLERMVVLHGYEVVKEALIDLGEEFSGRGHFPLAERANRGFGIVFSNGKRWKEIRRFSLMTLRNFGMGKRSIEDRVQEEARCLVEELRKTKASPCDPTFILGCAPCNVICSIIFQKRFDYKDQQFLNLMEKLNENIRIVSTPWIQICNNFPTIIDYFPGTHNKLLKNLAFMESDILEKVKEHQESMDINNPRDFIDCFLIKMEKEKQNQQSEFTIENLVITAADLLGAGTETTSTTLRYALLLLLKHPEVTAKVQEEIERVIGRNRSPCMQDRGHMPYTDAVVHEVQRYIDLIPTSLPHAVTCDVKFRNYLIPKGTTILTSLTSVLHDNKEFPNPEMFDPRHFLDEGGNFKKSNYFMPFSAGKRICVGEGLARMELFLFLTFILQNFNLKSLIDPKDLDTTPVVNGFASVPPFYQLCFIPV

Consider `CN1CCN(C(c2ccccc2)c2ccccc2)CC1` [CYCLIZINE], for which the IC50 result at Cytochrome P450 2C19 is “Not Active”; in data set [1], “Not Active”; in data set [2], “Not Active”; at Adenosine receptor A2a, “Not Active”; in data set [3], “Not Active”; in data set [4] (read-out: IC50), 2490 nM. The IC50 entry in data set [5] is “Not Active”. Further, the inhibition constant Ki result on Cytochrome P450 2C19 was “Not Active”; in data set [3] it was “Not Active”; in data set [4] it was 1380 nM.
Take `CN1C[C@@H]2C[C@H]1CN2c1cc2c(cc1F)c(=O)c(C(=O)O)cn2C1CC1` [DANOFLOXACIN]: the concentration for half-maximal inhibition (IC50) entry (at Cytochrome P450 2C19; in data set [1]; in data set [2]; at Adenosine receptor A2a; in data set [3]; in data set [4]) was “Not Active” throughout. Further, the IC50 entry in data set [5] is “Not Active”. Moreover, the Ki result (at Cytochrome P450 2C19; in data set [3]) was “Not Active” each time.
Turning to `COc1cccc2c1C(=O)c1c(O)c3c(c(O)c1C2=O)C[C@@](O)(C(C)=O)C[C@@H]3O[C@H]1C[C@H](N)[C@H](O)[C@H](C)O1` [DAUNORUBICIN], the IC50 result (against Cytochrome P450 2C19; in data set [1]; in data set [2]; at Adenosine receptor A2a; in data set [3]; in data set [4]) was “Not Active” throughout. Further, the IC50 result in data set [5] is reported as “Not Active”. Moreover, the Ki result (on Cytochrome P450 2C19; in data set [3]) was “Not Active” in each case.
Take `O=C(O)c1cc(-c2ccc(F)cc2F)ccc1O` [DIFLUNISAL]: the IC50 entry (against Cytochrome P450 2C19; in data set [1]; in data set [2]; at Adenosine receptor A2a; in data set [3]; in data set [4]) was “Not Active” throughout. Besides, the IC50 result in data set [5] is “Not Active”. Further, the Ki entry (on Cytochrome P450 2C19; in data set [3]) was “Not Active” throughout.
Turning to `C[S+](C)[O-]` [DIMETHYL SULFOXIDE], the IC50 entry (on Cytochrome P450 2C19; in data set [1]; in data set [2]; on Adenosine receptor A2a; in data set [3]; in data set [4]) was “Not Active” each time. The IC50 entry in data set [5] is “Not Active”. Besides, the Ki result (at Cytochrome P450 2C19; in data set [3]) was “Not Active” throughout.
For the molecule `CC1=NN(c2ccccc2)C(=O)C1` [EDARAVONE], the IC50 result (against Cytochrome P450 2C19; in data set [1]; in data set [2]; on Adenosine receptor A2a; in data set [3]; in data set [4]) was “Not Active” throughout. The IC50 entry in data set [5] was “Not Active”. The Ki entry (on Cytochrome P450 2C19; in data set [3]) was “Not Active” in each case.
On to `CC(C)C[C@H]1C(=O)N2CCC[C@H]2[C@]2(O)O[C@](NC(=O)[C@@H]3C=C4c5cccc6[nH]cc(c56)C[C@H]4N(C)C3)(C(C)C)C(=O)N12` [ERGOCRYPTINE], for which the concentration for half-maximal inhibition (IC50) entry is “Not Active” against Cytochrome P450 2C19; “Not Active” in data set [1]; “Not Active” in data set [2]; “Not Active” on Adenosine receptor A2a; “Not Active” in data set [3]; 14 nM in data set [4] (read-out: IC50). Besides, the IC50 result in data set [5] was “Not Active”. For the same molecule, the Ki result is “Not Active” on Cytochrome P450 2C19, “Not Active” in data set [3] and 7.94 nM in data set [4].
Consider `C[C@]12CC[C@@H]3c4ccc(O)cc4CC[C@H]3[C@@H]1C[C@@H](O)[C@@H]2O` [ESTRIOL], for which the IC50 result (against Cytochrome P450 2C19; in data set [1]; in data set [2]; on Adenosine receptor A2a; in data set [3]; in data set [4]) was “Not Active” in each case. Further, the IC50 result in data set [5] is “Not Active”. In addition, the Ki entry (on Cytochrome P450 2C19; in data set [3]) was “Not Active” each time.
For `C#C[C@]1(O)CC[C@H]2[C@@H]3CCC4=CC(=O)CC[C@]4(C)[C@H]3CC[C@@]21C` [ETHISTERONE], the IC50 result (against Cytochrome P450 2C19; in data set [1]; in data set [2]; on Adenosine receptor A2a; in data set [3]; in data set [4]) was “Not Active” in each case. For the same molecule, the IC50 entry in data set [5] was “Not Active”. Moreover, the Ki entry (on Cytochrome P450 2C19; in data set [3]) was “Not Active” each time.
Take `CC(O)(P(=O)(O)O)P(=O)(O)O` [ETIDRONIC ACID]: the IC50 entry (on Cytochrome P450 2C19; in data set [1]; in data set [2]; at Adenosine receptor A2a; in data set [3]; in data set [4]) was “Not Active” throughout. Also, the half-inhibitory concentration (IC50) result in data set [5] was “Not Active”. Moreover, the inhibitory constant (Ki) result (on Cytochrome P450 2C19; in data set [3]) was “Not Active” in each case.
With `CN1CCN(c2c(F)cc3c(=O)c(C(=O)O)cn(CCF)c3c2F)CC1` [FLEROXACIN], the IC50 result (against Cytochrome P450 2C19; in data set [1]; in data set [2]; on Adenosine receptor A2a; in data set [3]; in data set [4]) was “Not Active” throughout. The IC50 result in data set [5] is given as “Not Active”. Besides, the Ki entry (on Cytochrome P450 2C19; in data set [3]) was “Not Active” in each case.
Take `O=c1[nH]c(=O)n([C@H]2C[C@H](O)[C@@H](CO)O2)cc1F` [FLOXURIDINE]: the IC50 result (at Cytochrome P450 2C19; in data set [1]; in data set [2]; on Adenosine receptor A2a; in data set [3]; in data set [4]) was “Not Active” in each case. Besides, in data set [5], the 50% inhibitory concentration (IC50) result was “Not Active”. Further, the Ki result (at Cytochrome P450 2C19; in data set [3]) was “Not Active” in each case.
Regarding `COC(=O)Nc1nc2cc(C(=O)c3ccc(F)cc3)ccc2[nH]1` [FLUBENDAZOLE], the IC50 result (against Cytochrome P450 2C19; in data set [1]; in data set [2]; at Adenosine receptor A2a; in data set [3]; in data set [4]) was “Not Active” each time. Further, the IC50 entry in data set [5] is “Not Active”. The Ki result (at Cytochrome P450 2C19; in data set [3]) was “Not Active” in each case.
As for `CC(=O)OCC(=O)[C@@]1(O)CC[C@H]2[C@@H]3CCC4=CC(=O)CC[C@]4(C)[C@@]3(F)[C@@H](O)C[C@@]21C` [FLUDROCORTISONE ACETATE], the concentration for half-maximal inhibition (IC50) result (at Cytochrome P450 2C19; in data set [1]; in data set [2]; on Adenosine receptor A2a; in data set [3]; in data set [4]) was “Not Active” each time. The IC50 entry in data set [5] was “Not Active”. Besides, the Ki entry (at Cytochrome P450 2C19; in data set [3]) was “Not Active” in each case.
For the molecule `CCOC(=O)c1ncn2c1CN(C)C(=O)c1cc(F)ccc1-2` [FLUMAZENIL], the IC50 result (against Cytochrome P450 2C19; in data set [1]; in data set [2]; at Adenosine receptor A2a; in data set [3]; in data set [4]) was “Not Active” throughout. For the same molecule, the concentration for half-maximal inhibition (IC50) entry in data set [5] is listed as “Not Active”. Further, the Ki entry (at Cytochrome P450 2C19; in data set [3]) was “Not Active” throughout.
With `O=C(O)P(=O)(O)O` [FOSCARNET], the IC50 entry (against Cytochrome P450 2C19; in data set [1]; in data set [2]; at Adenosine receptor A2a; in data set [3]; in data set [4]) was “Not Active” each time. Further, the IC50 entry in data set [5] was “Not Active”. Also, the Ki result (at Cytochrome P450 2C19; in data set [3]) was “Not Active” throughout.
`Cc1ccc(C)c(OCCCC(C)(C)C(=O)O)c1` [GEMFIBROZIL]: the IC50 result (on Cytochrome P450 2C19; in data set [1]; in data set [2]; at Adenosine receptor A2a; in data set [3]; in data set [4]) was “Not Active” throughout. For the same molecule, in data set [5], the IC50 result is “Not Active”. Further, the Ki entry (at Cytochrome P450 2C19; in data set [3]) was “Not Active” each time.
